Test results: patent US9738634B2, “Heterocyclic amide compound and herbicide” (SYNGENTA PARTICIPATIONS AG, priority 2013, dated 2017)

Tests used:
Format in all cases: in vivo
bulrush [1] = experiment: Test Example 1: weedkilling efficacy, preemergent weed treatment in the submerged state; B: bulrush
Procedure, shortened: (§1)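 Pre-emergence application onto floodwater (4 cm, alluvial soil) on the day of sowing, dose expressed as g/ha from diluted emulsion formulation. Weeds sown with 2.5-leaf transplanted rice as crop; plants held at 25–30 °C in greenhouse and scored against assessment criteria after 3 weeks.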

wild oat = experiment: Test Example 3: weedkilling efficacy through soil treatment; G: wild oat; settings: soil treatment, treatment dosage 315 g/ha
Source text: (§2) Weedkilling Efficacy Test Through Soil Treatment
(§3) Sterilized diluvial soil was introduced into 21 cm long, 13 cm wide, 7 cm deep plastic boxes, and seeds of crabgrass, green foxtail, barnyard grass, wild oat, black-grass, Italian ryegrass, common wind-grass, Indian mallow, redroot pigweed, fig-leafed goosefoot, chickweed, catchweed, birds-eye speedwell, corn, soybean, rice, wheat, beet and rapeseed were each spot-sown, and covered with about 1.5 cm of soil. Next, emulsions of compounds of the present invention prepared according to compounding example 2 were diluted with water to give the specified dosages, and applied uniformly onto the soil surface with a small sprayer. The plants were grown by placing the plastic boxes in a greenhouse at 25 to 30° C., and 3 weeks after the pesticide treatment the effect on each type of plant was investigated on the basis of the assessment criteria of test example 1.
(§4) A: barnyard grass, B: bulrush, C: oval-leafed pondweed, D: crabgrass, E: green foxtail, F: barnyard grass, G: wild oat, H: black-grass, I: Italian ryegrass, J: common wind-grass, K: Indian mallow, L: redroot pigweed, M: fig-leafed goosefoot, N: chickweed, O: catchweed, p: birds-eye speedwell, a: transplanted rice, b: directly sown rice, c: corn, d: soybean, e: wheat, f: beet, g: rapeseed
(§5) Further, pesticide dosage (g/ha) indicates the concentration regulated such that treatment was with only the stated number of grams (g), when calculated per hectare (ha).

black-grass = experiment: Test Example 3: weedkilling efficacy through soil treatment; H: black-grass; settings: soil treatment, treatment dosage 315 g/ha
Source text: as §2, §3, §4, §5

chickweed = experiment: Test Example 3: weedkilling efficacy through soil treatment; N: chickweed; settings: soil treatment, treatment dosage 315 g/ha
Source text: as §2, §3, §4, §5

Indian mallow = experiment: Test Example 3: weedkilling efficacy through soil treatment; K: Indian mallow; settings: soil treatment, treatment dosage 315 g/ha
Source text: as §2, §3, §4, §5

wheat = experiment: Test Example 3: soil treatment, effect on crop; e: wheat; settings: soil treatment, treatment dosage 315 g/ha
Source text: as §2, §3, §4, §5

oval-leafed pondweed [2] = experiment: Test Example 2: weedkilling efficacy, growth period weed treatment in the submerged state; C: oval-leafed pondweed
Procedure, shortened: (§6)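 Weeds treated at the 1-2 leaf stage by application of diluted emulsion onto floodwater (4 cm depth, alluvial soil) at specified g/ha. Grown in greenhouse at 25 to 30° C; herbicidal effect rated three weeks after treatment.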

fig-leafed goosefoot = experiment: Test Example 3: weedkilling efficacy through soil treatment; M: fig-leafed goosefoot; settings: soil treatment, treatment dosage 315 g/ha
Source text: as §2, §3, §4, §5

beet = experiment: Test Example 3: soil treatment, effect on crop; f: beet; settings: soil treatment, treatment dosage 315 g/ha
Source text: as §2, §3, §4, §5

Italian ryegrass = experiment: Test Example 3: weedkilling efficacy through soil treatment; I: Italian ryegrass; settings: soil treatment, treatment dosage 315 g/ha
Source text: as §2, §3, §4, §5

redroot pigweed = experiment: Test Example 3: weedkilling efficacy through soil treatment; L: redroot pigweed; settings: soil treatment, treatment dosage 315 g/ha
Source text: as §2, §3, §4, §5

barnyard grass [3] = experiment: Test Example 2: weedkilling efficacy, growth period weed treatment in the submerged state; A: barnyard grass
Procedure, shortened: as §6

corn = experiment: Test Example 3: soil treatment, effect on crop; c: corn; settings: soil treatment, treatment dosage 315 g/ha
Source text: as §2, §3, §4, §5

green foxtail = experiment: Test Example 3: weedkilling efficacy through soil treatment; E: green foxtail; settings: soil treatment, treatment dosage 315 g/ha
Source text: as §2, §3, §4, §5

transplanted rice = experiment: Test Example 1: preemergent weed treatment in the submerged state, effect on crop; a: transplanted rice
Procedure, shortened: as §1

bulrush [4] = experiment: Test Example 2: weedkilling efficacy, growth period weed treatment in the submerged state; B: bulrush
Procedure, shortened: as §6

crabgrass = experiment: Test Example 3: weedkilling efficacy through soil treatment; D: crabgrass; settings: soil treatment, treatment dosage 315 g/ha
Source text: as §2, §3, §4, §5

soybean = experiment: Test Example 3: soil treatment, effect on crop; d: soybean; settings: soil treatment, treatment dosage 315 g/ha
Source text: as §2, §3, §4, §5

oval-leafed pondweed [5] = experiment: Test Example 1: weedkilling efficacy, preemergent weed treatment in the submerged state; C: oval-leafed pondweed
Procedure, shortened: as §1

barnyard grass [6] = experiment: Test Example 1: weedkilling efficacy, preemergent weed treatment in the submerged state; A: barnyard grass
Procedure, shortened: as §1

directly sown rice = experiment: Test Example 3: soil treatment, effect on crop; b: directly sown rice; settings: soil treatment, treatment dosage 315 g/ha
Source text: as §2, §3, §4, §5

Row | Structure (SMILES) | B: bulrush, weed kill grade (bulrush [1]; treatment dosage 252 g/ha) | G: wild oat, weedkilling efficacy grade (wild oat) | H: black-grass, weedkilling efficacy grade (black-grass) | N: chickweed, weedkilling efficacy grade (chickweed) | K: Indian mallow, weedkilling efficacy grade (Indian mallow) | e: wheat, effect on crop grade (wheat) | C (oval-leafed pondweed) weedkilling efficacy grade (oval-leafed pondweed [2]; treatment dosage 252 g/ha) | M: fig-leafed goosefoot, weedkilling efficacy grade (fig-leafed goosefoot) | I: Italian ryegrass, weedkilling efficacy grade (Italian ryegrass) | L: redroot pigweed, weedkilling efficacy grade (redroot pigweed) | A (barnyard grass) weedkilling efficacy grade (barnyard grass [3]; treatment dosage 252 g/ha) | c: corn, effect on crop grade (corn) | E: green foxtail, weedkilling efficacy grade (green foxtail) | a: transplanted rice, effect on crop grade (transplanted rice; treatment dosage 252 g/ha) | B (bulrush) weedkilling efficacy grade (bulrush [4]; treatment dosage 252 g/ha) | D: crabgrass, weedkilling efficacy grade (crabgrass) | d: soybean, effect on crop grade (soybean) | C: oval-leafed pondweed, weed kill grade (oval-leafed pondweed [5]; treatment dosage 252 g/ha) | A: barnyard grass, weed kill grade (barnyard grass [6]; treatment dosage 252 g/ha) | also measured
1 | CC(C)(C(=O)Nc1cccc(Cl)n1)N1COCN(c2ccccc2)C1=O [A-2-07] | 5 (weed kill ratio 90% or more, (practically complete withering)) | 5 (weed kill ratio 90% or more, (practically complete withering)) | 5 (weed kill ratio 90% or more, (practically complete withering)) | 4 (weed kill ratio 70% or more, less than 90%) | 0 (weed kill ratio 5% or less (practically no effect)) | 3 (weed kill ratio 40% or more, less than 70%) | 5 (weed kill ratio 90% or more, (practically complete withering)) | 4 (weed kill ratio 70% or more, less than 90%) | 5 (weed kill ratio 90% or more, (practically complete withering)) | 5 (weed kill ratio 90% or more, (practically complete withering)) | 4 (weed kill ratio 70% or more, less than 90%) | 4 (weed kill ratio 70% or more, less than 90%) | 5 (weed kill ratio 90% or more, (practically complete withering)) | 4 (weed kill ratio 70% or more, less than 90%) | 5 (weed kill ratio 90% or more, (practically complete withering)) | 5 (weed kill ratio 90% or more, (practically complete withering)) | 4 (weed kill ratio 70% or more, less than 90%) | 5 (weed kill ratio 90% or more, (practically complete withering)) | 5 (weed kill ratio 90% or more, (practically complete withering)) | f: beet, effect on crop grade (beet): 5 (weed kill ratio 90% or more, (practically complete withering))
2 | CC(C)(C(=O)Nc1cc(Cl)cc(Br)n1)N1COCN(c2ccccc2)C1=O [A-2-24] | 5 (weed kill ratio 90% or more, (practically complete withering)) | 5 (weed kill ratio 90% or more, (practically complete withering)) | 5 (weed kill ratio 90% or more, (practically complete withering)) | 4 (weed kill ratio 70% or more, less than 90%) | 4 (weed kill ratio 70% or more, less than 90%) | 4 (weed kill ratio 70% or more, less than 90%) | 5 (weed kill ratio 90% or more, (practically complete withering)) | 4 (weed kill ratio 70% or more, less than 90%) | 5 (weed kill ratio 90% or more, (practically complete withering)) | 4 (weed kill ratio 70% or more, less than 90%) | 5 (weed kill ratio 90% or more, (practically complete withering)) | 0 (weed kill ratio 5% or less (practically no effect)) | 5 (weed kill ratio 90% or more, (practically complete withering)) | 0 (weed kill ratio 5% or less (practically no effect)) | 5 (weed kill ratio 90% or more, (practically complete withering)) | 5 (weed kill ratio 90% or more, (practically complete withering)) | 1 (weed kill ratio 5% or more, less than 20%) | 5 (weed kill ratio 90% or more, (practically complete withering)) | 5 (weed kill ratio 90% or more, (practically complete withering)) | b: directly sown rice, effect on crop grade (directly sown rice): 4 (weed kill ratio 70% or more, less than 90%)
3 | CC(C)(C(=O)Nc1cc(Br)cnc1Cl)N1COCN(c2ccccc2)C1=O [A-3-07] | 5 (weed kill ratio 90% or more, (practically complete withering)) | – | – | – | – | – | 1 (weed kill ratio 5% or more, less than 20%) | – | – | – | 4 (weed kill ratio 70% or more, less than 90%) | – | – | 0 (weed kill ratio 5% or less (practically no effect)) | 5 (weed kill ratio 90% or more, (practically complete withering)) | – | – | 4 (weed kill ratio 70% or more, less than 90%) | 5 (weed kill ratio 90% or more, (practically complete withering)) | –
4 | Cc1ccc(N2COCN(C(C)(C)C(=O)Nc3cc(Cl)cc(F)n3)C2=O)cc1 [A-6-11] | – | – | – | – | – | – | – | – | – | – | – | – | – | – | – | – | – | – | – | B: bulrush, weed kill grade (bulrush [1]; treatment dosage 320 g/ha): 5 (weed kill ratio 90% or more, (practically complete withering)); C (oval-leafed pondweed) weedkilling efficacy grade (oval-leafed pondweed [2]; treatment dosage 320 g/ha): 5 (weed kill ratio 90% or more, (practically complete withering)); A (barnyard grass) weedkilling efficacy grade (barnyard grass [3]; treatment dosage 320 g/ha): 4 (weed kill ratio 70% or more, less than 90%); a: transplanted rice, effect on crop grade (transplanted rice; treatment dosage 320 g/ha): 0 (weed kill ratio 5% or less (practically no effect)); B (bulrush) weedkilling efficacy grade (bulrush [4]; treatment dosage 320 g/ha): 5 (weed kill ratio 90% or more, (practically complete withering)); C: oval-leafed pondweed, weed kill grade (oval-leafed pondweed [5]; treatment dosage 320 g/ha): 5 (weed kill ratio 90% or more, (practically complete withering)); A: barnyard grass, weed kill grade (barnyard grass [6]; treatment dosage 320 g/ha): 5 (weed kill ratio 90% or more, (practically complete withering))
5 | CC(C)(C(=O)Nc1cc(C(F)(F)F)ccn1)N1COCN(c2ccccc2)C1=O [A-2-42] | 5 (weed kill ratio 90% or more, (practically complete withering)) | – | – | – | – | – | 5 (weed kill ratio 90% or more, (practically complete withering)) | – | – | – | 5 (weed kill ratio 90% or more, (practically complete withering)) | – | – | 4 (weed kill ratio 70% or more, less than 90%) | 5 (weed kill ratio 90% or more, (practically complete withering)) | – | – | 5 (weed kill ratio 90% or more, (practically complete withering)) | 5 (weed kill ratio 90% or more, (practically complete withering)) | –
6 | CC(C)(C(=O)Nc1ccnc(Cl)c1)N1COCN(c2ccccc2)C1=O [A-4-02] | 5 (weed kill ratio 90% or more, (practically complete withering)) | – | – | – | – | – | 4 (weed kill ratio 70% or more, less than 90%) | – | – | – | 2 (weed kill ratio 20% or more, less than 40%) | – | – | 1 (weed kill ratio 5% or more, less than 20%) | 5 (weed kill ratio 90% or more, (practically complete withering)) | – | – | 5 (weed kill ratio 90% or more, (practically complete withering)) | 5 (weed kill ratio 90% or more, (practically complete withering)) | –
